The values that follow come from publication PMC11372076, “A dual inhibitor of PIP5K1C and PIKfyve prevents SARS-CoV-2 entry into cells” (Experimental & Molecular Medicine, 2024).

Series [1] concerns VSV-G-pseudotyped virus. Format: cell-based.
The test system of series [2] is cathepsin D. The series is described as follows: Cathepsin D maturation by Western blot. Format: cell-based.
Series [3] concerns SARS-CoV-2. Format: cell-based.
Series [4] concerns cathepsin L. Kind of series: Cathepsin L maturation by Western blot. The settings on record: Vero cells. Format: cell-based. In general terms: In western blotting, separated proteins are transferred to a membrane and probed.
The test system of series [5] is HEK293T cells stably expressing mCherry-GFP-LC3. Kind of series: mCherry-GFP-LC3 tandem fluorescent protein quenching assay. Format: cell-based. The settings on record: 0.5 μM, within 6 h. The protocol:
HEK293T cells at a density of 1.6 × 10^4 cells per well in 96-well plates (Nunc) were stained with Hoechst (Cayman Chemical Company, 33342) for 10 min. The cells were washed with PBS two times and incubated with prewarmed media supplemented with 10% FBS. Cells were treated with UNI418 in prewarmed media. Images were acquired in a time-dependent manner and quantified with an ImageXpress high-content screening system (Molecular Devices, San Jose, CA, USA).
Fig. 3 UNI418 negatively affects autophagosome-lysosome fusion and endosome acidification. a Live-cell imaging of HEK293T cells stably expressing mCherry-GFP-LC3 treated with 0.5 μM UNI418 at the indicated time points; the images within the white rectangular boxes are magnified on the right side. Scale bar, 30 µm. The number (b) and area (c) of GFP-positive dots per cell were quantified by ImageXpress. d Immunofluorescence images illustrating the inhibition of endolysosomal acidification by UNI418. Vero cells were treated with the mock control or 1 µM UNC3230, apilimod or UNI418 for 1 h at 37 °C. […] The cells were analyzed by confocal microscopy using two emission wavelengths at 493–560 (green) and 590–720 nm (red) after excitation at 488 nm. […] The green-to-red fluorescence intensity ratio (e) and the area of fluorescent spots (f) were quantified. b, c, e, f The data are presented as the means ± SEMs, with a minimum of 200 spots. […]

Series [6] is described as follows: in vitro. The settings on record: African green monkey.
Series [7] deals with RPE1 cells. Kind of series: Autophagic flux assay (LC3-II turnover with bafilomycin A1). Format: cell-based. The settings on record: 1 μM, 2 h, normal growth media. An excerpt: Fig. 2 UNI418 inhibits autophagy. a Western blot analysis of p62, LC3B-I, LC3B-II and GAPDH in the presence of UNC3230, apilimod and UNI418. b Immunofluorescence staining with LC3B (green) and p62 (red) antibodies upon treatment with UNC3230, apilimod and UNI418, and images within the white rectangular boxes are magnified on the right side. Scale bar, 20 µm. c The area of fluorescence intensity from immunofluorescence images (b) was quantified after UNC3230, apilimod and UNI418 treatments. d, e Quantification of autophagic flux under normal conditions and under HBSS-induced starvation conditions with or without UNI418 treatment. […]
The whole cell extracts were prepared by lysis of harvested cells with M -PER Mammalian protein extraction reagent (Thermo Fisher Scientific). The protein concentrations were determined by Bradford protein assay (Bio- Rad). […] The images were obtained and quantified by Fusion solo ChemiDoc system (Vilber).
Autophagic flux assay was analyzed essentially as previously described1,2.
Briefly, RPE1 cells were treated with UNI418 (0, 0.5, or 1 µM) for 2 h with/without bafilomycin A1 to inhibit lysosomal degradation under normal growth media or HBSS. […] The LC3- II bands were quantified using Fusion Solo ChemiDoc system (Vilber) and normalized to GAPDH bands. […]

Series [8] has as its system Vero cells. Kind of series: Endosomal pH change test with acridine orange. Format: cell-based. The settings on record: 1 µM for 1 h. How it is done:
This image-based experiment was performed according to our previous report with some modifications. Vero cells were cultured in a glass bottom 35 mm dish (6 × 10^4 cells per well) overnight. Each compound, including 1 µM UNC3230, apilimod or UNI418, was added to Vero cells for 1 h at 37 °C. The cells were stained with acridine orange (Sigma‒Aldrich, A9231) at a final concentration of 4 µg/mL for 30 min. After washing with PBS twice, images were acquired using a confocal microscope (Zeiss LSM 700, Baden-Württemberg, Germany) at two emission wavelengths, 493 to 560 nm and 590 to 720 nm, with excitation at 488 nm. The green-to-red ratio or vacuole size was measured using the built-in software ZEN 3.1.
Fig. 3 UNI418 negatively affects autophagosome-lysosome fusion and endosome acidification. a Live-cell imaging of HEK293T cells stably expressing mCherry-GFP-LC3 treated with 0.5 μM UNI418 at the indicated time points; the images within the white rectangular boxes are magnified on the right side. Scale bar, 30 µm. The number (b) and area (c) of GFP-positive dots per cell were quantified by ImageXpress. d Immunofluorescence images illustrating the inhibition of endolysosomal acidification by UNI418. Vero cells were treated with the mock control or 1 µM UNC3230, apilimod or UNI418 for 1 h at 37 °C. Acridine orange (4 µg/mL) was added to the compound-treated live cells, followed by additional incubation for 30 min. The cells were analyzed by confocal microscopy using two emission wavelengths at 493–560 (green) and 590–720 nm (red) after excitation at 488 nm. Merged images are presented, and images within the white rectangular boxes are magnified on the right side. Original magnification, 630×. The green-to-red fluorescence intensity ratio (e) and the area of fluorescent spots (f) were quantified. b, c, e, f The data are presented as the means ± SEMs, with a minimum of 200 spots. Statistical significance was determined by Student’s t test; *p < 0.05, **p < 0.01, ***p < 0.001 and ****p < 0.0001. n.s., not significant.

Regarding `c1ccc(-c2cc(Nc3nc(-c4ccncc4)nc4ccccc34)n[nH]2)cc1` [UNI418, N -(5-phenyl-1 H -pyrazol-3-yl)-2-(4-pyridinyl)-4-quinazolinamine], the pseudotyped virus entry entry in series [1] is reported as “unaffected”. Further, the “proteolytic cleavage (maturation) of cathepsin D” value in series [2] was “considerably inhibited”. Also, in series [3], the “reduction in the levels of the viral NP gene (viral genome copies)” value is “approximately 2 log”. Further, the “proteolytic maturation of cathepsin L” value in series [4] is “considerably inhibited”. In series [5], the “number of nonacidic autophagosomes” value is given as “considerably increased”. Further, in series [6], the CC50 was 62.3 µM. In series [7], the autophagic flux entry is “markedly inhibited”. Also, in series [8], the “green-to-red ratio of fluorescent spots relative to mock-treated sample” value came to 6.3 fold.
As for `Cc1cccc(/C=N/Nc2cc(N3CCOCC3)nc(OCCc3ccccn3)n2)c1` [apilimod], the “proteolytic cleavage (maturation) of cathepsin D” value in series [2] is given as “largely inhibited”. Also, in series [3], the “reduction in the levels of the viral NP gene (viral genome copies)” value is “approximately 2 log”. In series [6], the CC50 came to 73.6 µM. In addition, in series [8], the “green-to-red ratio of fluorescent spots relative to mock-treated sample” value is listed as 2.2 fold.
